Measured values from patent publication US9290436B2, “Compositions containing carboxylic acid-substituted derivatives” (Elizabeth Arden, Inc., priority 2008, dated 2016).

What was measured:
[1] = Six-week double-blind clinical evaluation for the treatment of red and brown pigmented skin; type: in vivo, human; conditions: 0.5% in vehicle, twice a day to facial area for 6 weeks; expert grading of Canfield VISIA-CR RBX images; women ages 40-70
Experimental: A six-week double-blind clinical evaluation was performed, comparing a control vehicle to idebenone dipalmitoyl glycerate for the treatment of red and brown pigmented skin. Approximately 36 women, ages 40-70 with moderate hyperpigmentation and reddening of the skin were selected to participate in the study. Subjects were randomly assigned to one of three groups. Group I received a product with no idebenone active ingredient (vehicle), Group II received the same vehicle with 0.5% Idebenone (Hydroxydecyl Ubiquinone) added, and Group III received the same vehicle with 0.5% of Idebenone Dipalmitoyl Glycerate added. Subjects were instructed to apply the product twice a day (morning and evening) to the facial area for 6 weeks. Canfield VISIA-CR RBX images were made at baseline and after 6 weeks use and analyzed. Digital and UV photographs were also taken, standardizing distance and positioning of the subjects, pre and post product application.

[2] = Maximization Test (repeat insult patch test) for contact-sensitizing potential; type: in vivo, human; conditions: Vehicle+1% test substance, occlusive patch, 5 induction exposures with SLS pre-treatment, single challenge; graded 48 or 72 hours after application of challenge patches; healthy adult volunteers
Experimental: A study was performed to evaluate the contact-sensitizing potential of a topical Facial Cream containing idebenone dipalmitoyl glycerate (Vehicle+1% idebenone dipalmitoyl glycerate) using the Maximization Test. The test was a repeat insult patch test wherein the test material was applied under an occlusive dressing to the upper outer arm, volar forearm or back repeatedly to the same site for five 48-hour induction periods, followed 10-14 days later by a single challenge to a naive skin site. The test sample was coded Cream A and tested as supplied viz. neat. All test materials were stored under ambient conditions in an inaccessible location under the supervision of the investigator.
The test subjects were all healthy, adult volunteers over the age of 18 years. […]

Row | Compound | subjects responded with a decrease in brown pigmentation [1] [%] | subjects responded with less redness [1] [%] | subjects with contact allergy / positive reaction (recordable level of skin sensitization) after challenge [2]
1 | 3-oxo-3-(9-(2,4,5-trimethyl-3,6-dioxocyclohexa-1,4-dienyl)monyloxy)propane-1,2-diyl dipalmitate [idebenone dipalmitoyl glycerate] | 75 | 58 | –
2 | COC1=C(OC)C(=O)C(CCCCCCCCCCOP(=O)(O)O)=C(C)C1=O [idebenone phosphate ester] | – | – | Four subjects exhibited positive reactions
3 | COC1=C(OC)C(=O)C(CCCCCCCCCCO)=C(C)C1=O [idebenone, 6-(10-hydroxydecyl)-2,3-dimethoxy-5-methyl-1,4-benzoquinone] | 67 | 58 | –
